Laboratory results: patent US12391679B2, “Benzamide-substituted bicyclic imidazo- and pyrazolo-fused -pyridine, -pyrimide, and -pyridazine compounds for treatment of inflammatory diseases” (ONCO3R Therapeutics BV, priority 2019, dated 2025)

System: LPS-induced TNFα in monocyte-derived macrophages
Assay: MdM assay: LPS-triggered TNFα (ELISA)
Format: cell-based, human
Settings: Macrophage; human MdM; LPS 200 ng/mL; supernatant after 20 h; inhibition of TNFα; read-out: TNFα EC50
How it was run: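 TNFα secretion quantified by streptavidin-HRP/luminol sandwich ELISA in supernatants collected 20 h after LPS (200 ng/mL). Macrophages derived from magnetically isolated human CD14+ monocytes were used at day 10, with compound added 1 h before LPS; final DMSO 0.2%.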

`COc1cc(-c2cnc3cc(C(C)(C)N)ccn23)cc(OC(F)F)c1C(=O)NC1CC1` [Cpd 106, 4-[7-(1-amino-1-methyl-ethyl)imidazo[1,2-a]pyridin-3-yl]-N-cyclopropyl-2-(difluoromethoxy)-6-methoxy-benzamide] and `COc1cc(-c2cnc3cc(C(C)(C)CO)ccn23)cc(OC(F)F)c1C(=O)NC1CC1` [Cpd 150, N-cyclopropyl-2-(difluoromethoxy)-4-[7-(2-hydroxy-1,1-dimethyl-ethyl)imidazo[1,2-a]pyridin-3-yl]-6-methoxy-benzamide] fall in the same range of EC50: 0.1 to 1 µM for the first, 0.1 to 1 µM for the second.

`COc1cc(-c2cnc3cc(C4(C#N)CCOCC4)ccn23)cc(OC)c1C(=O)NCC(F)(F)F` [Cpd 107, 4-[7-(4-cyanotetrahydropyran-4-yl)imidazo[1,2-a]pyridin-3-yl]-2,6-dimethoxy-N-(2,2,2-trifluoroethyl)benzamide] and `COc1cc(-c2cnc3cc(C4(C#N)CCOCC4)ccn23)cc(OC(F)F)c1C(=O)NC1CC1` [Cpd 116, 4-[7-(4-cyanotetrahydropyran-4-yl)imidazo[1,2-a]pyridin-3-yl]-N-cyclopropyl-2-(difluoromethoxy)-6-methoxy-benzamide] fall in the same range of EC50: 1 to 5 µM for the first, 1 to 5 µM for the second.

`COC(=O)C1(c2ccn3c(-c4cc(OC)c(C(=O)NC5CC5)c(OC(F)F)c4)cnc3c2)CC1` [Cpd 113, methyl 1-[3-[4-(cyclopropylcarbamoyl)-3-(difluoromethoxy)-5-methoxy-phenyl]imidazo[1,2-a]pyridin-7-yl]cyclopropanecarboxylate] and `COc1cc(-c2cnc3cc(C4(O)CCC4)ccn23)cc(OC(F)F)c1C(=O)NC1CC1` [Cpd 173, N-cyclopropyl-2-(difluoromethoxy)-4-[7-(1-hydroxycyclobutyl)imidazo[1,2-a]pyridin-3-yl]-6-methoxy-benzamide] fall in the same range of EC50: 0.1 to 1 µM for the first, 0.1 to 1 µM for the second.

Compared with `COc1cc(-c2cnc3cc(C4(C#N)COC4)ccn23)cc(OC(F)F)c1C(=O)NC1CC1` [Cpd 117, 4-[7-(3-cyanooxetan-3-yl)imidazo[1,2-a]pyridin-3-yl]-N-cyclopropyl-2-(difluoromethoxy)-6-methoxy-benzamide], `COc1cc(-c2cnc3cc(C4(C#N)CCOC4)ccn23)cc(OC(F)F)c1C(=O)NC1CC1` (stereo not drawn) [Cpd 123, 4-[7-(3-cyanotetrahydrofuran-3-yl)imidazo[1,2-a]pyridin-3-yl]-N-cyclopropyl-2-(difluoromethoxy)-6-methoxy-benzamide] is higher in EC50: 0.1 to 1 µM for the first, 1 to 5 µM for the second.

`CCOC(C)(C)c1ccn2c(-c3cc(OC)c(C(=O)NC4CC4)c(OC(F)F)c3)cnc2c1` [Cpd 128, N-cyclopropyl-2-(difluoromethoxy)-4-[7-(1-ethoxy-1-methyl-ethyl)imidazo[1,2-a]pyridin-3-yl]-6-methoxy-benzamide] and `CCC(C)(O)c1ccn2c(-c3cc(OC)c(C(=O)NC4CC4)c(OC(F)F)c3)cnc2c1` (stereo not drawn) [Cpd 137, N-cyclopropyl-2-(difluoromethoxy)-4-[7-(1-hydroxy-1-methyl-propyl)imidazo[1,2-a]pyridin-3-yl]-6-methoxy-benzamide] fall in the same range of EC50: 0.1 to 1 µM for the first, 0.1 to 1 µM for the second.

`COc1cc(-c2cnc3cc(C(C)(O)C(F)(F)F)ccn23)cc(OC(F)F)c1C(=O)NC1CC1` (stereo not drawn) [Cpd 129, N-cyclopropyl-2-(difluoromethoxy)-6-methoxy-4-[7-(2,2,2-trifluoro-1-hydroxy-1-methyl-ethyl)imidazo[1,2-a]pyridin-3-yl]benzamide] and `COc1cc(-c2cnc3cc(C(F)(F)CO)ccn23)cc(OC(F)F)c1C(=O)NC1CC1` [Cpd 136, N-cyclopropyl-4-[7-(1,1-difluoro-2-hydroxy-ethyl)imidazo[1,2-a]pyridin-3-yl]-2-(difluoromethoxy)-6-methoxy-benzamide] fall in the same range of EC50: 0.1 to 1 µM for the first, 0.1 to 1 µM for the second.

`COc1cc(-c2cnc3cc(C4(C#N)COC4)ccn23)cc(OC(F)F)c1C(=O)N[C@@H]1C[C@@H]1F` [Cpd 130, 4-[7-(3-cyanooxetan-3-yl)imidazo[1,2-a]pyridin-3-yl]-2-(difluoromethoxy)-N-[(1R,2S)-2-fluorocyclopropyl]-6-methoxy-benzamide] and `COc1cc(-c2cnc3cc(C4(O)CCC4)ccn23)cc(OC(F)F)c1C(=O)N[C@@H]1C[C@@H]1F` [Cpd 205, 2-(difluoromethoxy)-N-[(1R,2S)-2-fluorocyclopropyl]-4-[7-(1-hydroxycyclobutyl)imidazo[1,2-a]pyridin-3-yl]-6-methoxy-benzamide] fall in the same range of EC50: 0.1 to 1 µM for the first, 0.1 to 1 µM for the second.

`COc1cc(-c2cnc3cc(C(C)(O)C4CC4)ccn23)cc(OC(F)F)c1C(=O)NC1CC1` (stereo not drawn) [Cpd 138, N-cyclopropyl-4-[7-(1-cyclopropyl-1-hydroxy-ethyl)imidazo[1,2-a]pyridin-3-yl]-2-(difluoromethoxy)-6-methoxy-benzamide] and `COc1cc(-c2cnc3cc(C(C)(C)C(C)O)ccn23)cc(OC(F)F)c1C(=O)NC1CC1` (stereo not drawn) [Cpd 172, N-cyclopropyl-2-(difluoromethoxy)-4-[7-(2-hydroxy-1,1-dimethyl-propyl)imidazo[1,2-a]pyridin-3-yl]-6-methoxy-benzamide] fall in the same range of EC50: 0.1 to 1 µM for the first, 0.1 to 1 µM for the second.

`COc1cc(-c2cnc3cc(C(C)O)ccn23)cc(OC(F)F)c1C(=O)NC1CC1` (stereo not drawn) [Cpd 140, N-cyclopropyl-2-(difluoromethoxy)-4-[7-(1-hydroxyethyl)imidazo[1,2-a]pyridin-3-yl]-6-methoxy-benzamide] and `COc1cc(-c2cnc3cc(C(O)CC#N)ccn23)cc(OC(F)F)c1C(=O)NC1CC1` (stereo not drawn) [Cpd 175, 4-[7-(2-cyano-1-hydroxy-ethyl)imidazo[1,2-a]pyridin-3-yl]-N-cyclopropyl-2-(difluoromethoxy)-6-methoxy-benzamide] fall in the same range of EC50: 1 to 5 µM for the first, 1 to 5 µM for the second.

`COc1cc(-c2cnc3cc(C(C)N4CCCCC4)ccn23)cc(OC(F)F)c1C(=O)NC1CC1` (stereo not drawn) [Cpd 146, N-cyclopropyl-2-(difluoromethoxy)-6-methoxy-4-[7-[1-(1-piperidyl)ethyl]imidazo[1,2-a]pyridin-3-yl]benzamide] and `COc1cc(-c2cnc3cc(C4CCCN4C)ccn23)cc(OC(F)F)c1C(=O)NC1CC1` (stereo not drawn) [Cpd 171, N-cyclopropyl-2-(difluoromethoxy)-6-methoxy-4-[7-(1-methylpyrrolidin-2-yl)imidazo[1,2-a]pyridin-3-yl]benzamide] fall in the same range of EC50: 1 to 5 µM for the first, 1 to 5 µM for the second.

First: COc1cc(-c2cnc3cc(C(C)(C)CN4CCOCC4)ccn23)cc(OC(F)F)c1C(=O)NC1CC1 [Cpd 160, N-cyclopropyl-2-(difluoromethoxy)-4-[7-(1,1-dimethyl-2-morpholino-ethyl)imidazo[1,2-a]pyridin-3-yl]-6-methoxy-benzamide]
Second: COc1cc(-c2cnc3cc(C4COCCN4C)ccn23)cc(OC(F)F)c1C(=O)NC1CC1 (stereo not drawn) [Cpd 193, N-cyclopropyl-2-(difluoromethoxy)-6-methoxy-4-[7-(4-methylmorpholin-3-yl)imidazo[1,2-a]pyridin-3-yl]benzamide]
The EC50 of the first is lower: 0.1 to 1 µM for the first, 1 to 5 µM for the second.

`COc1cc(-c2cnc3cc(C4CCOCC4)c(F)cn23)cc(OC(F)F)c1C(=O)NC1CC1` [Cpd 166, N-cyclopropyl-2-(difluoromethoxy)-4-(6-fluoro-7-tetrahydropyran-4-yl-imidazo[1,2-a]pyridin-3-yl)-6-methoxy-benzamide] and `COc1cc(-c2cnc3cc(C4CCC4)c(F)cn23)cc(OC(F)F)c1C(=O)NC1CC1` [Cpd 168, 4-(7-cyclobutyl-6-fluoro-imidazo[1,2-a]pyridin-3-yl)-N-cyclopropyl-2-(difluoromethoxy)-6-methoxy-benzamide] fall in the same range of EC50: 0.1 to 1 µM for the first, 0.1 to 1 µM for the second.

First: COc1cc(-c2cnc3cc(C4(O)CCOCC4)ccn23)cc(OC(F)F)c1C(=O)NC1CC1 [Cpd 170, N-cyclopropyl-2-(difluoromethoxy)-4-[7-(4-hydroxytetrahydropyran-4-yl)imidazo[1,2-a]pyridin-3-yl]-6-methoxy-benzamide]
Second: COc1cc(-c2cnc3cc(C4(F)COC4)ccn23)cc(OC(F)F)c1C(=O)NC1CC1 [Cpd 207, N-cyclopropyl-2-(difluoromethoxy)-4-[7-(3-fluorooxetan-3-yl)imidazo[1,2-a]pyridin-3-yl]-6-methoxy-benzamide]
The EC50 of the first is higher: 1 to 5 µM for the first, 0.1 to 1 µM for the second. The second is the more potent here.

`COc1cc(-c2cnc3cc(C4COC4)ccn23)cc(OC(F)F)c1C(=O)NC1CC1` [Cpd 174, N-cyclopropyl-2-(difluoromethoxy)-6-methoxy-4-[7-(oxetan-3-yl)imidazo[1,2-a]pyridin-3-yl]benzamide] and `COc1cc(-c2cnc3cc(C4COC4)ccn23)cc(OC(F)F)c1C(=O)N[C@@H]1C[C@@H]1F` [Cpd 206, 2-(difluoromethoxy)-N-[(1R,2S)-2-fluorocyclopropyl]-6-methoxy-4-[7-(oxetan-3-yl)imidazo[1,2-a]pyridin-3-yl]benzamide] fall in the same range of EC50: 0.1 to 1 µM for the first, 0.1 to 1 µM for the second.

Compared with `COc1cc(-c2cnc3cc(C(C)(C#N)CO)ccn23)cc(OC(F)F)c1C(=O)NC1CC1` (stereo not drawn) [Cpd 176, 4-[7-(1-cyano-2-hydroxy-1-methyl-ethyl)imidazo[1,2-a]pyridin-3-yl]-N-cyclopropyl-2-(difluoromethoxy)-6-methoxy-benzamide], `COCC(C)(C#N)c1ccn2c(-c3cc(OC)c(C(=O)NC4CC4)c(OC(F)F)c3)cnc2c1` (stereo not drawn) [Cpd 195, 4-[7-(1-cyano-2-methoxy-1-methyl-ethyl)imidazo[1,2-a]pyridin-3-yl]-N-cyclopropyl-2-(difluoromethoxy)-6-methoxy-benzamide] is lower in EC50: 1 to 5 µM for the first, 0.1 to 1 µM for the second.

`COc1cc(-c2cnn3cc(C(C)(C)C#N)ccc23)cc(OC(F)F)c1C(=O)NC1CC1` [Cpd 208, 4-[6-(1-cyano-1-methyl-ethyl)pyrazolo[1,5-a]pyridin-3-yl]-N-cyclopropyl-2-(difluoromethoxy)-6-methoxy-benzamide] and `COc1cc(-c2cnn3cc(C4COC4)ccc23)cc(OC(F)F)c1C(=O)NC1CC1` [Cpd 216, N-cyclopropyl-2-(difluoromethoxy)-6-methoxy-4-[6-(oxetan-3-yl)pyrazolo[1,5-a]pyridin-3-yl]benzamide] fall in the same range of EC50: 0.1 to 1 µM for the first, 0.1 to 1 µM for the second.

With `COc1cc(-c2cnc3cc(C(C)(C)O)ccn23)cc(OC(F)F)c1C(=O)N[C@@H]1C[C@@H]1F` [Cpd 211, 2-(difluoromethoxy)-N-[(1R,2S)-2-fluorocyclopropyl]-4-[7-(1-hydroxy-1-methyl-ethyl)imidazo[1,2-a]pyridin-3-yl]-6-methoxy-benzamide] the EC50 was 0.1 to 1 µM.
